Results: ChEMBL document CHEMBL1201862, “PubChem BioAssay data set” (2004)
Active and inactive are the calls of the source.

How the values were obtained:
[1] = DRD fibroblast viability loss – cell-based, non-viral oncogenic, luminescence, dose response (AID 1934); format: functional; conditions: Homo sapiens
[2] = target: T1, Orexin/Hypocretin receptor type 1 (Homo sapiens, UniProt O43613); test: (§1) Fluorescence-based cell-based high throughput dose response assay for antagonists of the orexin 1 receptor (OX1R; HCRTR1). [Related pubchem assays (depositor defined):AID434989, AID435008, AID463079, AID485270, AID492963, AID492964, AID492965, AID493232, AID504717, AID504718]; format: functional
T1 sequence (O43613 whole entry): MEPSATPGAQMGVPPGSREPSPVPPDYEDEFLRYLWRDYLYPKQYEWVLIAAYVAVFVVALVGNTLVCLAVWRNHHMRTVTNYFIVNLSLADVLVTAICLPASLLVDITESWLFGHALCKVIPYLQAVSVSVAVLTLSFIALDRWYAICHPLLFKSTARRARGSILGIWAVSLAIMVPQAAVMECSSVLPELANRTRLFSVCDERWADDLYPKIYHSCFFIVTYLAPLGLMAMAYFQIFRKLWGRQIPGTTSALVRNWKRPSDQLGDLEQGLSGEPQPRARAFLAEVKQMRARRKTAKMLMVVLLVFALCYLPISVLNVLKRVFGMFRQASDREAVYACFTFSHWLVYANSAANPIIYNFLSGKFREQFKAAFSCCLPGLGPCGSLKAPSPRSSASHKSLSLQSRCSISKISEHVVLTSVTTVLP

Orexin receptor type 2 [3] = target: T2, Orexin receptor type 2 (Homo sapiens, UniProt O43614); test: Counterscreen assay for antagonists of the orexin 1 receptor (OX1R; HCRTR1): Fluorescence-based cell-based dose response assay for antagonists of the orexin 2 receptor (OX2R; HCRTR2), run by assay provider.; format: functional
T2 sequence (O43614 whole entry): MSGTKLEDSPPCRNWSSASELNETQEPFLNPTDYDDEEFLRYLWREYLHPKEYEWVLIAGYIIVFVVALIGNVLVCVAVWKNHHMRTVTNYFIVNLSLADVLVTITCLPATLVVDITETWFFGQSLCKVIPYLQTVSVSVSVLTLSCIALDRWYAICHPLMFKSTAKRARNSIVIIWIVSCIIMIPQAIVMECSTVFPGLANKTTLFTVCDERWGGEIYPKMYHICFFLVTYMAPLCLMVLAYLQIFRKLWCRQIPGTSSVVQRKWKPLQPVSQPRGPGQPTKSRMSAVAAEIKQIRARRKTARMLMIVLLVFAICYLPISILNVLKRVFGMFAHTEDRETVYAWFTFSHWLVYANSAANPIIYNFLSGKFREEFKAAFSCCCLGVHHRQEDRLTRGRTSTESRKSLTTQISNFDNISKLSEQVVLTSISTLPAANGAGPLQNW

[4] = (§2) Counterscreen for antagonists of the orexin 1 receptor (OX1R; HCRTR1): Fluorescence-based cell-based high throughput dose response assay to identify antagonists of the parental CHO cell line. [Related pubchem assays (depositor defined):AID434989, AID435008, AID463079, AID485270, AID492963, AID492964, AID492965, AID493232, AID504699, AID504701]; format: functional
CHO = CHO cell viability loss, potency – luminescence, cytotoxicity control for TLR9-MyD88 binding inhibitor project, dose response (AID 588339); format: functional, cell-based, hamster; conditions: Cricetulus griseus;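 note: CHO cells stably coexpressing TLR9 and MyD88 fusions from primary screen; compound exposure lasted 48 hours before viability readout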
[5] = target: T1, Orexin/Hypocretin receptor type 1; test: as §1, with “Homogeneous Time Resolved Fluorescence (HTRF)-based” for “Fluorescence-based”; format: functional
BJ [6] = test: cells; format: functional, cell-based; conditions: Homo sapiens
Beta Lactamase = Beta Lactamase (Pseudomonas aeruginosa, UniProt Q932Y6); test: BLA reporter interference, concentration series – BLA reporter cells, FRET fluorescence, artefact control for TLR9-MyD88 binding inhibitor project, dose response (AID 588341); format: cell-based;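 note: cell based assay in CHO-K1 cells stably expressing beta-lactamase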
Beta Lactamase, sequence (Q932Y6 whole entry): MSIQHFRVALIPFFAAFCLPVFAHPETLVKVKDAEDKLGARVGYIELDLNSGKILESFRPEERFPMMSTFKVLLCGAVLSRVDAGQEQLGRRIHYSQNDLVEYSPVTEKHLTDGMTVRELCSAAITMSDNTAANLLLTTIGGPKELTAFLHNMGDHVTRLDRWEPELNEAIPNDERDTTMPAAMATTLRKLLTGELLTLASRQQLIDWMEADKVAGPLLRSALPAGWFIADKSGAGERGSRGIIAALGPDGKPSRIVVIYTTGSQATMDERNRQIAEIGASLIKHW

CHO-K1 = test: as §2, with “Homogeneous time resolved fluorescence (HTRF)-based” for “Fluorescence-based”, “cell-based” for “cell-based high throughput”, “CHO-K1” for “CHO”; format: functional; conditions: Cricetulus griseus
BJ [7] = test: BJ-TERT fibroblast viability loss – cell-based, RAS-independent, luminescence, dose response (AID 1933); format: functional; conditions: Homo sapiens
Orexin receptor type 2 [8] = target: T2, Orexin receptor type 2; test: Counterscreen assay for antagonists of the orexin 1 receptor (OX1R; HCRTR1): Homogeneous Time Resolved Fluorescence (HTRF)-based cell-based dose response assay for antagonists of the orexin 2 receptor (OX2R; HCRTR2), run by assay provider.; format: functional
[9] = target: T3, High affinity choline transporter 1 (Homo sapiens, UniProt Q9GZV3); test: human choline transporter blockers, potency – cell-based, 5-point CRC, membrane potential dye, dose response (AID 504840); format: functional
T3 sequence (Q9GZV3 whole entry): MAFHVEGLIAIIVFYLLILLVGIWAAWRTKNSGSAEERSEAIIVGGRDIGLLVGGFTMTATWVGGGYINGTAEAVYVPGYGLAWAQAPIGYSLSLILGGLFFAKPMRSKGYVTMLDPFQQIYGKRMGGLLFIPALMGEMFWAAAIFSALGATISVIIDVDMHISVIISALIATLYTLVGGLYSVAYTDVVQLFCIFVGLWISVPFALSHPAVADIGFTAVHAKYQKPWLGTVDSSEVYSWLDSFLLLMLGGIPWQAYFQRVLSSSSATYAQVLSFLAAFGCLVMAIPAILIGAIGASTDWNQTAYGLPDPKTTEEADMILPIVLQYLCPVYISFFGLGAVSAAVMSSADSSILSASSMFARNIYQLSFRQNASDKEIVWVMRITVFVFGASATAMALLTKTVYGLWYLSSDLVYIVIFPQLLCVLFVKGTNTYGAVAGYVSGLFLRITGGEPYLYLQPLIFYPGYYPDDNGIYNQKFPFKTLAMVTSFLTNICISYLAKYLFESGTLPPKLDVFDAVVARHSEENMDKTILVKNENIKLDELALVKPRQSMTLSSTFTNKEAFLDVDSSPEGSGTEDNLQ

[10] = target: T3, High affinity choline transporter 1; test: human choline transporter blockers, potency – cell-based, 10-point CRC, membrane potential dye, dose response (AID 588401); format: functional;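 note: membrane potential dye fluorescence of choline-evoked depolarization via CHT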
[11] = target: Ras and Rab interactor 1/Tyrosine-protein kinase ABL1 (Homo sapiens, UniProt P00519+Q13671); format: functional;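 note: biochemical TR-FRET dose-response test measuring inhibition of binding between Rin1 and Abl proteins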
Ras and Rab interactor 1/Tyrosine-protein kinase ABL1, sequence (P00519 whole entry): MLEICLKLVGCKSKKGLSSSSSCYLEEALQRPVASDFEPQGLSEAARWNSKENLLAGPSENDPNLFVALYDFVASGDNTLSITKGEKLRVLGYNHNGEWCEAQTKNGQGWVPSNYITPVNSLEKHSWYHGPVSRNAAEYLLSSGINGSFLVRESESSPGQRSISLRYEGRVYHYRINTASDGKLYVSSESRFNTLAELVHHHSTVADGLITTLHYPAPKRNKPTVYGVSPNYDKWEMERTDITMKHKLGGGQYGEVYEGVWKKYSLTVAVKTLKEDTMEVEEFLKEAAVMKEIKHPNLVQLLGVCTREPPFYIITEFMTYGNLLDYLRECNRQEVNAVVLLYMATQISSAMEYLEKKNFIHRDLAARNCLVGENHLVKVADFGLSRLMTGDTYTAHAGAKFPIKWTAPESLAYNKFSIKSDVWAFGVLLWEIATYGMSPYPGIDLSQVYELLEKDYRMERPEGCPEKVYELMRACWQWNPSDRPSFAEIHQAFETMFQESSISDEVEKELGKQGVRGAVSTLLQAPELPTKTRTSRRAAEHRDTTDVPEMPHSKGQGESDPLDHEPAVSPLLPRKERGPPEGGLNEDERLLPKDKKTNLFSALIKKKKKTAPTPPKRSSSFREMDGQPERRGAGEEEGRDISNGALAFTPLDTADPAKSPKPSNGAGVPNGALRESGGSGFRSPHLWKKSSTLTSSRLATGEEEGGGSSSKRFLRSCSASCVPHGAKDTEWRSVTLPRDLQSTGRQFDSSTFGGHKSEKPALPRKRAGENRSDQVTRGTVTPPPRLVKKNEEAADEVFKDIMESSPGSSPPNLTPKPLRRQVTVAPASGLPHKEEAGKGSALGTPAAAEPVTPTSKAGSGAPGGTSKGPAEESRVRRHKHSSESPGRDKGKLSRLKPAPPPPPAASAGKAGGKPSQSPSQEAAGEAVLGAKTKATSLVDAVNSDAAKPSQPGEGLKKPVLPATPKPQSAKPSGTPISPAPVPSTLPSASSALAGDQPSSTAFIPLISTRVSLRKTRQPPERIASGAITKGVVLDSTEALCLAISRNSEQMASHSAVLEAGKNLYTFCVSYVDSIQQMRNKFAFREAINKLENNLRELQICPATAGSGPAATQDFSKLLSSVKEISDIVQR
Ras and Rab interactor 1/Tyrosine-protein kinase ABL1, sequence (Q13671 whole entry): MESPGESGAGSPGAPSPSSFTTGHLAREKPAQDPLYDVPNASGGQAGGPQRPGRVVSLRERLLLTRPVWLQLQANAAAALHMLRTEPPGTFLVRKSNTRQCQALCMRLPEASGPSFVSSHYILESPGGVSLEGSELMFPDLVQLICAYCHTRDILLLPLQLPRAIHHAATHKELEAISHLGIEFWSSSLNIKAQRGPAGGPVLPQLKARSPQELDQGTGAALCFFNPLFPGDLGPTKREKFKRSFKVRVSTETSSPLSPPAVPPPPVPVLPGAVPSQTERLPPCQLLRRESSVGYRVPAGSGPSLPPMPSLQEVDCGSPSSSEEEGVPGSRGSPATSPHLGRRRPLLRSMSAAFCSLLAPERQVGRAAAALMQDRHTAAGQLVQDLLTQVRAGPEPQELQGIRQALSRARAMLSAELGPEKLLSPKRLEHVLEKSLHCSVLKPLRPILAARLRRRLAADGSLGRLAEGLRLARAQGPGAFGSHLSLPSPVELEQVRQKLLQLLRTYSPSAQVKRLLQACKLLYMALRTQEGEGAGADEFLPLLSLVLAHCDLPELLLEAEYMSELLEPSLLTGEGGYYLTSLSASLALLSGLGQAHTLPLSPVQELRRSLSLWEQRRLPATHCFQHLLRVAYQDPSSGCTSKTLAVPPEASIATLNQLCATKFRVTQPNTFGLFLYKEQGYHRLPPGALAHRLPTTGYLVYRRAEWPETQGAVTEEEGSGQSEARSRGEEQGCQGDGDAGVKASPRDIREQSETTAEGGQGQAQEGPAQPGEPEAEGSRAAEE

[12] = target: Protein disulfide-isomerase (Homo sapiens, UniProt P07237); test: inhibition of PDI-driven insulin aggregation – biochemical, turbidity, absorbance, cherry-picked samples, dose response (AID 602350); format: functional
Protein disulfide-isomerase, sequence (P07237 whole entry): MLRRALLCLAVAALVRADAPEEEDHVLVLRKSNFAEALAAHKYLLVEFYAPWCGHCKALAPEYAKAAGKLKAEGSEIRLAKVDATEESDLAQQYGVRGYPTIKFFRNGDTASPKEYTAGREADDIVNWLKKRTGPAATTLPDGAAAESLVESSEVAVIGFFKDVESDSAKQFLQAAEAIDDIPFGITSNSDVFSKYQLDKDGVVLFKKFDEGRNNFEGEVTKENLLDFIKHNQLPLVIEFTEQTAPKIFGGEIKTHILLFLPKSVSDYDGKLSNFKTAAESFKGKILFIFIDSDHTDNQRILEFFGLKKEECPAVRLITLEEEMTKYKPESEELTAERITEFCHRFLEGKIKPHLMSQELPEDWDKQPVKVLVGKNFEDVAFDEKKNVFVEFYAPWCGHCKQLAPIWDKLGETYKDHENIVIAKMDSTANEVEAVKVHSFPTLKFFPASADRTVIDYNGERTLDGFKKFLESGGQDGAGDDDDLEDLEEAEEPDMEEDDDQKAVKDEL

[13] = reduced cellular PGC1a acetyl-lysine signal – cell-based, cherry-picked samples, dose response (AID 720514); format: functional;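 note: potency may reflect raised or lowered acetylation signal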
[14] = viability loss of HPDE-C7K cells – cell-based, fluorescence, HTS, primary screen (AID 431); format: functional; conditions: Homo sapiens
Paired box protein Pax-8 = Paired box protein Pax-8 (Homo sapiens, UniProt Q06710); test: PAX8 transcriptional activity inhibition in RMG-I – RMG-I cells, luciferase, cherry-pick, dose response (AID 687027); format: functional, cell-based;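 note: luciferase reporter driven by Pax8 target thyroperoxidase promoter measured by SteadyGlo luminescence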
Paired box protein Pax-8, sequence (Q06710 whole entry): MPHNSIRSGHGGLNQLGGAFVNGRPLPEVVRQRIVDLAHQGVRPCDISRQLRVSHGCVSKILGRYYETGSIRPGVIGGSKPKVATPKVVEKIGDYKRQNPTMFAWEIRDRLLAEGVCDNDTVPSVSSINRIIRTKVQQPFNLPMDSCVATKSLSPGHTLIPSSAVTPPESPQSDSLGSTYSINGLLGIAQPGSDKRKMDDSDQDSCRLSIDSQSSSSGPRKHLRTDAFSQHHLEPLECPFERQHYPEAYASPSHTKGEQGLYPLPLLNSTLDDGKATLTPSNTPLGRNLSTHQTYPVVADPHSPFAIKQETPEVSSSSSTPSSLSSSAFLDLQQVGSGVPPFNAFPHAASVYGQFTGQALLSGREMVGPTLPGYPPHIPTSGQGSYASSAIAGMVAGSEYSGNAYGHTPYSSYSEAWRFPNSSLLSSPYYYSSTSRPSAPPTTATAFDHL

[15] = HPDE-C7 pancreatic duct cell viability loss – fluorescence, HTS (AID 430); format: functional, cell-based; conditions: Homo sapiens
[16] = target: T4, Apoptotic protease-activating factor 1 (Homo sapiens, UniProt O14727); test: SAR analysis of small molecule Activators of Apaf-1 in a Fluorescent assay.; format: functional; conditions: read-out: EC50_Mean;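 note: caspase-3 cleavage of fluorogenic Rh110 DEVD substrate downstream of apoptosome activation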
T4 sequence (O14727 whole entry): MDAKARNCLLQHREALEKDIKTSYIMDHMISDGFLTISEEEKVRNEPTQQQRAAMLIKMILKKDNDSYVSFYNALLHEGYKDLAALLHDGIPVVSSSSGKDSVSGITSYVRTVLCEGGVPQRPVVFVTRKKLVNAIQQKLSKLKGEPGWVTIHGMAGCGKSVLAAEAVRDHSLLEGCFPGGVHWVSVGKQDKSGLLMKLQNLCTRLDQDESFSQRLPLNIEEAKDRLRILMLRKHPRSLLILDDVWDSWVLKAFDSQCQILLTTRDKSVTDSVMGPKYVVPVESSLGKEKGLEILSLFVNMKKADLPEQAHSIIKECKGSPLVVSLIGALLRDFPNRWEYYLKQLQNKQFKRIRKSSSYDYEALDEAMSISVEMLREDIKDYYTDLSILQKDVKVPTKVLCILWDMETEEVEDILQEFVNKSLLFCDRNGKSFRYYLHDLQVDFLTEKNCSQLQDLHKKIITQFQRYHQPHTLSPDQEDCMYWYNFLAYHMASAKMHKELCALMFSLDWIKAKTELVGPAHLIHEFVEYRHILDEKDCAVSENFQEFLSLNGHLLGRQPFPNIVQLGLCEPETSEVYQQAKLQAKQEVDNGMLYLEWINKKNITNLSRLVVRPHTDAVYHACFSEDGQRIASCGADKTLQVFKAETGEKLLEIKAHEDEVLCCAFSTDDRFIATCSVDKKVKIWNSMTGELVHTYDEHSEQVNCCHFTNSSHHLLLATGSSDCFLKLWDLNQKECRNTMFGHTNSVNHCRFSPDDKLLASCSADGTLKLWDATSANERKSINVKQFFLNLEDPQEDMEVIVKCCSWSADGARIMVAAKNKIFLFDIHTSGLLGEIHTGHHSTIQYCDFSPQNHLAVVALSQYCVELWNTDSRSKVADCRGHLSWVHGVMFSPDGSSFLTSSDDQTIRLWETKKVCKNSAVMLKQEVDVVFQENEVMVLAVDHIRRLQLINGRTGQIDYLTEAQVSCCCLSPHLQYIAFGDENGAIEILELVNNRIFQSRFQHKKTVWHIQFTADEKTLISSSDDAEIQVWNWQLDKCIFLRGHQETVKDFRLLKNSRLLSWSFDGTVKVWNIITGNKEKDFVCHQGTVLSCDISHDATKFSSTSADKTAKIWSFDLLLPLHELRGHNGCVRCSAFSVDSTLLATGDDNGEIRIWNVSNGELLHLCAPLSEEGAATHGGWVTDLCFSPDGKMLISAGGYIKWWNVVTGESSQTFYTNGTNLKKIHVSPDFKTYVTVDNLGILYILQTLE

## CCN(CC)c1ccc2cc(-c3nc4ccccc4n3C)c(=O)oc2c1
[1]
  EC50: 185 nM (active)
[2]
  IC50: 1.77 µM (active)
Orexin receptor type 2 [3]
  IC50: 32 µM (inactive)
[4]
  IC50: > 49.8 µM (inactive)
CHO
  IC50: 29.4 µM (inactive)
[5]
  IC50: 1.14 µM (active)
BJ [6]
  EC50: 345 nM (active)
Beta Lactamase
  IC50: 2.56 µM (active)
CHO-K1
  IC50: > 66.2 µM (inactive)
BJ [7]
  EC50: < 120 nM (active)
Orexin receptor type 2 [8]
  IC50: > 50 µM (inactive)

## CCOCCn1c(CN2CCN(c3ccc(F)cc3)CC2)nc2c1c(=O)n(C)c(=O)n2C
[9]
  IC50: 7.77 µM (active)
[10]
  IC50: 4.01 µM (active)

## COc1cc(C(=O)OCC(=O)Nc2ccc(S(=O)(=O)N3CCCC3)cc2)cc(OC)c1OC
[11]
  IC50: 12.4 µM (inactive)

## Cn1cnnc1Sc1ccc(/C=C/C(=O)c2ccc(O)cc2)cc1[N+](=O)[O-]
[12]
  AC50: 0.422 µM (active)
[13]
  AC50: 8.44 µM (active)

## Cc1ccc(S(=O)(=O)CCC(=O)c2ccc(O)cc2O)cc1
[14]
  EC50: 8.8 µM (active)
Paired box protein Pax-8
  AC50: 4.59 µM (active)
[15]
  EC50: 9.12 µM (active)
[12]
  AC50: 15.6 µM (active)

## CCC(C)(C)c1ccc(O)c(N2CC(C(=O)O)CC2=O)c1 (stereo unspecified)
[16]
  EC50: > 100 µM (inactive)
